Results: ChEMBL document CHEMBL1141935, “Aminopiperidine indazoles as orally efficacious melanin concentrating hormone receptor-1 antagonists” (Bioorg Med Chem Lett, 2005)

Columns and labels:
[1] = target: T1, Melanin-concentrating hormone receptor 1 (Homo sapiens, UniProt Q99705); experiment: Binding affinity to human MCHr1 from neuronal IMR32 cells; type: cell-based, IMR-32
[2] = target: T1, Melanin-concentrating hormone receptor 1; experiment: Functional antagonism of MCH-mediated calcium release by FLIPR using human MCHr1 from neuronal IMR32 cells; type: cell-based, IMR-32
[3] = AUC in DIO mice plasma at 10 mg/kg, po; type: ADME, organism-based; design: dose 10 mg/kg, route oral; conditions: mouse
[4] = AUC in DIO mice brain at 10 mg/kg, po; type: ADME, organism-based; design: dose 10 mg/kg, route oral; conditions: mouse
[5] = Half life in DIO mice plasma at 10 mg/kg, po; type: ADME, organism-based; design: dose 10 mg/kg, route oral; conditions: mouse
[6] = Half life in DIO mice brain at 10 mg/kg, po; type: ADME, organism-based; design: dose 10 mg/kg, route oral; conditions: mouse
[7] = Cmax in DIO mice plasma at 10 mg/kg, po; type: ADME, organism-based; design: dose 10 mg/kg, route oral; conditions: mouse
[8] = Cmax in DIO mice brain at 10 mg/kg, po; type: ADME, organism-based; design: dose 10 mg/kg, route oral; conditions: mouse

T1 sequence (Q99705 whole entry): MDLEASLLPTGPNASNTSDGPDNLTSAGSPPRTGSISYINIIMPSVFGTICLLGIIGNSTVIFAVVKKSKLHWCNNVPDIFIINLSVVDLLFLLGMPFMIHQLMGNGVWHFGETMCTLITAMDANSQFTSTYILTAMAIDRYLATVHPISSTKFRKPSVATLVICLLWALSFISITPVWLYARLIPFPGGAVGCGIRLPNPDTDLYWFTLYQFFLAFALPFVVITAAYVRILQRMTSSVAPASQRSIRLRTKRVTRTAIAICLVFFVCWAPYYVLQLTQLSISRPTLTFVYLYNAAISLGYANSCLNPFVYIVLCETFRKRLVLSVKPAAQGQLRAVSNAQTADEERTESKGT

SMILES | IC50 [1] [nM] | IC50 [2] [nM] | AUC [3] [ng·h/mL] | AUC [4] [ng·h/mL] | half-life [5] [h] | half-life [6] [h] | Cmax [7] [ng/mL] | Cmax [8] [ng/mL]
Cc1ccc2[nH]nc(NC3CCN(Cc4ccc5c(c4)OCO5)CC3)c2c1 | 110 | 1060 |  |  |  |  |  | 
O=[N+]([O-])c1ccc2[nH]nc(NC3CCN(Cc4ccc5c(c4)OCO5)CC3)c2c1 | 6 | 70 | 14400 | 22800 | 3.3 | 4 | 1520 | 3080
c1ccc2c(NC3CCN(Cc4ccc5c(c4)OCO5)CC3)[nH]nc2c1 | 440 | > 10000 |  |  |  |  |  | 
COc1ccc(CN2CCC(Nc3[nH]nc4ccc(Cl)cc34)CC2)c(F)c1 | 240 | 5200 |  |  |  |  |  | 
N#Cc1ccc2[nH]nc(NC3CCN(Cc4ccc5c(c4)OCO5)CC3)c2c1 | 220 | 3400 |  |  |  |  |  | 
Clc1ccc2c(c1)c(NC1CCN(Cc3ccc4c(c3)OCO4)CC1)nn2Cc1ccccn1 | 9 | 550 |  |  |  |  |  | 
COc1cccc(CN2CCC(Nc3[nH]nc4ccc(Cl)cc34)CC2)c1 | 150 | 4500 |  |  |  |  |  | 
Cc1ccc(CN2CCC(Nc3[nH]nc4ccc(Cl)cc34)CC2)cc1C | 100 | 1380 |  |  |  |  |  | 
Clc1ccc2[nH]nc(NC3CCN(Cc4ccc5nsnc5c4)CC3)c2c1 | 50 | 4910 |  |  |  |  |  | 
Clc1ccc2[nH]nc(NC3CCN(Cc4ccccc4)CC3)c2c1 | 850 | > 10000 |  |  |  |  |  | 
Clc1ccc2c(c1)c(NC1CCN(Cc3ccc4c(c3)OCO4)CC1)nn2Cc1cccnc1 | 20 | 290 | 11900 | 5340 | 4.7 | 6 | 1690 | 758
Clc1ccc2[nH]nc(NC3CCN(Cc4ccc5c(c4)OCCO5)CC3)c2c1 | 70 | 1890 |  |  |  |  |  | 
COc1cccc2[nH]nc(NC3CCN(Cc4ccc5c(c4)OCO5)CC3)c12 | 330 | > 10000 |  |  |  |  |  | 
COc1ccc2[nH]nc(NC3CCN(Cc4ccc5c[nH]nc5c4)CC3)c2c1 | 50 | 380 |  |  |  |  |  | 
O=C(c1cscn1)n1nc(NC2CCN(Cc3ccc4c(c3)OCO4)CC2)c2cc(Cl)ccc21 | 20 | 2540 | 400 |  | 1 |  | 271 | 
O=C(C1CC1)n1nc(NC2CCN(Cc3ccc4c(c3)OCO4)CC2)c2cc(Cl)ccc21 | 40 | > 10000 |  |  |  |  |  | 
Clc1ccc2c(c1)c(NC1CCN(Cc3ccc4c(c3)OCO4)CC1)nn2Cc1ccncc1 | 7 | 560 |  |  |  |  |  | 
COc1ccc2c(c1)c(NC1CCN(Cc3ccc4c(c3)OCO4)CC1)nn2C | 30 | 190 |  |  |  |  |  | 
O=C(CN1CCOCC1)n1nc(NC2CCN(Cc3ccc4c(c3)OCO4)CC2)c2cc(Cl)ccc21 | 20 | 1140 |  |  |  |  |  | 
O=C(c1cccnc1)n1nc(NC2CCN(Cc3ccc4c(c3)OCO4)CC2)c2cc(Cl)ccc21 | 20 | 930 | 164 |  | 2.3 |  | 63 | 
Clc1ccc(CN2CCC(Nc3[nH]nc4ccc(Cl)cc34)CC2)cc1 | 200 | 6200 |  |  |  |  |  | 
Clc1ccc2c(c1)c(NC1CCN(Cc3ccc4c(c3)OCO4)CC1)nn2-c1ccccc1 | 50 | > 10000 |  |  |  |  |  | 
Clc1ccc2c(c1)c(NC1CCN(Cc3ccc4c(c3)OCO4)CC1)nn2Cc1ccccc1 | 40 | 5230 |  |  |  |  |  | 
COc1ccc2[nH]nc(NC3CCN(Cc4ccc5c(c4)OCO5)CC3)c2c1 | 8 | 60 | 7630 | 28500 | 3.9 | 4.9 | 1410 | 6040
Clc1ccc2c(c1)c(NC1CCN(Cc3ccc4ccccc4c3)CC1)nn2Cc1ccccn1 | 20 | 640 |  |  |  |  |  | 
Clc1ccc2[nH]nc(NC3CCN(Cc4ccc5ccccc5c4)CC3)c2c1 | 40 | 1820 |  |  |  |  |  | 
O=[N+]([O-])c1ccc2[nH]nc(NC3CCN(Cc4ccc5c(c4)OCCO5)CC3)c2c1 | 30 | 520 |  |  |  |  |  | 
FC(F)(F)c1ccc2[nH]nc(NC3CCN(Cc4ccc5c(c4)OCO5)CC3)c2c1 | > 2000 | > 10000 |  |  |  |  |  | 
Clc1ccc2[nH]nc(NC3CCN(Cc4ccc5c(c4)OCO5)CC3)c2c1 | 20 | 260 | 8760 | 59100 | 3.1 | 2.9 | 1880 | 12100
O=[N+]([O-])c1ccc2c(c1)c(NC1CCN(Cc3ccc4c(c3)OCO4)CC1)nn2Cc1ccccc1 | 5 | 350 |  |  |  |  |  | 
